PubChem BioAssay (NCI)
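Where inhibition never reached the appropriate level, the endpoint shown equals the highest concentration tested. Otherwise, values were interpolated linearly from a five-concentration, 48-hour dose response in 96-well plates. The concentration for 50% growth inhibition is given as GI50. TGI: total growth inhibition.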

Key:
Test in all cases: NCI-60 cell line screen, 48 h
NCI-H460 lung = system: NCI-H460 lung
SNB-75 CNS = system: SNB-75 CNS
TK-10 renal = system: TK-10 renal
A549 NSCLC = system: A549 NSCLC
MALME-3M melanoma = system: MALME-3M melanoma

Row | Compound | TGI (NCI-H460 lung) | TGI (SNB-75 CNS) | TGI (TK-10 renal) | TGI (A549 NSCLC) | TGI (MALME-3M melanoma) | GI50 (NCI-H460 lung) | GI50 (SNB-75 CNS) | GI50 (TK-10 renal) | GI50 (A549 NSCLC) | GI50 (MALME-3M melanoma)
1 | CC(C)(C)c1cc(Cc2ccc(S(C)(=O)=O)cc2)c(O)c(C(C)(C)C)c1 | 30.5 µM | 28 µM | 31.7 µM | 24.2 µM | 32.7 µM |  |  |  |  | 
2 | O=C(Nc1ccc(Nc2ccc(NC(=O)c3ccccc3)c3c2C(=O)c2ccccc2C3=O)c2c1C(=O)c1ccccc1C2=O)c1ccccc1 | > 100 µM | > 100 µM | > 100 µM | > 100 µM | > 100 µM |  |  |  |  | 
3 | Cc1cc(NS(=O)(=O)c2ccc(NC(=O)c3cccc4c(Nc5ccc(S(=O)(=O)Nc6cc(C)on6)cc5)c5ccc(Cl)cc5nc34)cc2)no1 | > 100 µM | 65.2 µM | > 100 µM | > 100 µM | > 100 µM |  |  |  |  | 
4 | O=C1CCC2(c3ccccc3)OCC([C@@H](O)c3ccccc3)N12 (stereo not given in full) | > 100 µM | > 100 µM | > 100 µM | > 100 µM | > 100 µM |  |  |  |  | 
5 | COc1ccc(C(=O)C(c2ccc(OC)cc2)C2(O)C(=O)Nc3c(Cl)cc(Cl)cc32)cc1 (stereo not given) | 49.9 µM | 58.6 µM | 55 µM | 54.9 µM | 29.8 µM |  |  |  |  | 
6 | c1ccc(-c2sc(-c3ccccc3)c3c2C(c2ccccc2)c2c(-c4ccccc4)sc(-c4ccccc4)c2C3c2ccccc2)cc1 (stereo not given) | > 100 µM | > 100 µM | > 100 µM | > 100 µM | > 100 µM |  |  |  |  | 
7 | O=C1CC[C@@H](S(=O)(=O)c2ccccc2)[C@H](/C=C/c2ccccc2)O1 | > 100 µM | > 100 µM | > 100 µM | > 100 µM | > 100 µM |  |  |  |  | 
8 | C=C1C2CCCC1C1(S(C)(=O)=O)CCCCC21O (stereo not given) | > 100 µM | > 100 µM | > 100 µM | > 100 µM | > 100 µM |  |  |  |  | 
9 | Cc1cc(C)c([O-])c(-[n+]2c(-c3ccccc3)cc(-c3ccccc3)cc2-c2ccccc2)c1 | 15.8 µM | 17.5 µM | 19.4 µM | 28 µM | 16.7 µM |  |  |  |  | 
10 | CCP(C)(=O)CC | > 100 µM | > 100 µM | > 100 µM | > 100 µM | > 100 µM |  |  |  |  | 
11 | CC1CN1c1c(C(=O)/C=C/c2ccc(F)cc2)c(-c2ccccc2)nn(C)c1=O (stereo not given) | 36.3 µM | 28.7 µM | 31 µM | 47.5 µM | 30 µM |  |  |  |  | 
12 | [CH3][Ge]([CH3])([CH2]CC#N)[S]c1ccccc1 | 29.8 µM | 74 µM | 72.8 µM | > 100 µM | > 100 µM | 16.3 µM | 23.4 µM | 24.4 µM | 2.19 µM | 73.7 µM
13 | CCCCN(CCCC)CC(C(=O)Nc1ccc([N+](=O)[O-])cc1[N+](=O)[O-])/C(C)=N\NC(=O)c1ccncc1 (stereo not given) | > 100 µM | > 100 µM | > 100 µM | > 100 µM | > 100 µM |  |  |  |  | 
14 | COC1(OC)CCC2(C)OC(c3ccccc3)C1O2 (stereo not given) | > 100 µM | > 100 µM | > 100 µM | > 100 µM | > 100 µM |  |  |  |  | 
15 | Cc1[nH]c2ccccc2c1/C=C/c1c(C)[nH]c2ccccc12 | > 100 µM | > 100 µM | > 100 µM | > 100 µM | > 100 µM |  |  |  |  | 
16 | CS(=O)(=O)ON1C(=O)c2ccc(N)cc2C1=O | > 100 µM | > 100 µM | > 100 µM | > 100 µM | > 100 µM |  |  |  |  | 
17 | CC(=O)[CH-]C(=O)c1ccccc1.CC(=O)[CH-]C(=O)c1ccccc1.CC[C@H](CCC(C)[C@H]1CCC2[C@@H]3CC=C4C[C@@H]([O-])CC[C@]4(C)C3CC[C@@]21C)C(C)C.CC[C@H](CCC(C)[C@H]1CCC2[C@@H]3CC=C4C[C@@H]([O-])CC[C@]4(C)C3CC[C@@]21C)C(C)C.Cl.[Ti+4] (stereo not given in full) | > 25 µM | > 25 µM | > 25 µM | > 25 µM | > 25 µM |  |  |  |  | 
18 | CN(C)CC1CCCC/C1=N\OC(=O)c1ccccc1 (stereo not given) | > 100 µM | > 100 µM | > 100 µM | > 100 µM | > 100 µM |  |  |  |  | 
19 | CC(=O)[CH-]C(=O)c1ccccc1.CC(=O)[CH-]C(=O)c1ccccc1.CC(=O)[CH-]C(=O)c1ccccc1.[Cl-].[Hf+4] | > 100 µM | 70.4 µM | > 100 µM | > 100 µM | 39.8 µM | 38.5 µM | 22.2 µM | 39 µM | 46.4 µM | 14.8 µM
20 | COC12OCCN(C)C1=CC(=O)C1N=NCC12 (stereo not given) | > 100 µM | > 100 µM | > 100 µM | > 100 µM |  |  |  |  |  | 
21 | O=c1[nH]c(-c2ccccc2)nc2cc([N+](=O)[O-])c(/C(Cl)=C/c3ccccc3)cc12 |  | 53.1 µM | 76.6 µM | > 100 µM | > 100 µM |  |  |  |  | 
22 | COc1c(CC(C)=O)c2ccccc2n1C(C)=O | > 100 µM | > 100 µM |  | > 100 µM |  |  |  |  |  | 
23 | COC(=O)C1=C(C)N(NC(N)=O)C2(N)N(NC(N)=O)C(C)=C(C(=O)OC)C12C#N (stereo not given) | > 100 µM |  | > 100 µM | > 100 µM | > 100 µM |  |  |  |  | 
